Test results: patent US10550101B2, “Crystalline forms of mesylate salt of pyridinyl amino pyrimidine derivative, preparation methods therefor, and applications thereof” (SHANGHAI ALLIST PHARMACEUTICAL AND MEDICAL TECHNOLOGY …, priority 2016, dated 2020)
Values after ≈ are worked out from the molar mass of the structure shown. Where a name gives a salt, the structure may show the parent alone. Read-outs that look alike come from different tables or passages of the source. Each block holds one compound with its values, some of them ahead of it.

What was measured:
[1] = Drug absorption experiment in SD rats, intragastric administration (incl. absolute bioavailability); format: in vivo, SD rats (Sprague Dawley rats); conditions: for bioavailability / F (absolute bioavailability): from AUC0-t after dosage calibration; for bioavailability: read-out: F (absolute bioavailability); for F (absolute bioavailability): intragastric 10 mg/kg vs intravenous 2.5 mg/kg
Procedure: The determination method for the absolute bioavailability of the intragastric administration of the crystal forms of the mesylate salt of the compound of formula (I) is as follows: • For intravenous administration: Healthy SD rats are randomly grouped. The tested substance is administered in a certain dosage D through the intravenous administration. The blood samples are collected through the retrobulbar venous plexus before the administration and 5 min, 15 min, 0.5 h, 1.0 h, 2.0 h, 4.0 h, 8.0 h, 12 h and 24 h after the administration, and separated to give plasmas. […] The tested substance is administered in a certain dosage D through the intragastric administration.
After dosage calibration, the absolute bioavailability F is calculated by the area under the drug concentration-time curve (AUC0-t). The calculation equation is as follows: F=(AUCintragastric×Dintravenous)/(AUCintravenous×Dintragastric)×100%.
For intragastric administration: 20 healthy (half male and half female) SD rats with 200-280 g body weight, provided by Shanghai Sippr-BK laboratory animal Co. Ltd., were assigned randomly to 5 groups.
After dosage calibration, the absolute bioavailability F was obtained by calculation of AUC0-t. The calculation equation was as follows: F=(AUCintragastric×Dintravenous)/(AUCintravenous×Dintragastric)×100%. The obtained absolute bioavailability F data are shown in the above table 2.

[2] = Drug absorption experiment in SD rats, intravenous administration; format: in vivo, SD rats (Sprague Dawley rats); conditions: for half-life / AUC(0-t) / Cmax: plasma
Procedure: The determination method for the absolute bioavailability of the intragastric administration of the crystal forms of the mesylate salt of the compound of formula (I) is as follows: • For intravenous administration: Healthy SD rats are randomly grouped. The tested substance is administered in a certain dosage D through the intravenous administration. The blood samples are collected through the retrobulbar venous plexus before the administration and 5 min, 15 min, 0.5 h, 1.0 h, 2.0 h, 4.0 h, 8.0 h, 12 h and 24 h after the administration, and separated to give plasmas. The concentration of the drug in plasma is determined with the liquid chromatography-tandem mass spectrometry method to give a drug concentration-time curve. • For intragastric administration: Healthy SD rats are randomly grouped. The tested substance is administered in a certain dosage D through the intragastric administration. The intravenous blood samples are collected through the rat's retrobulbar venous plexus before the administration and 0.5, 1.0, 2.0, 4.0, 6.0, 8.0, 10, 12 and 24 h after the administration, and separated to give plasmas. The concentration of the drug in plasma is determined with the liquid chromatography-tandem mass spectrometry method to give a drug concentration-time curve.
For intravenous administration: 20 healthy (half male and half female) SD rats with 200-280 g body weight, provided by Shanghai Sippr-BK laboratory animal Co. Ltd., were assigned randomly to 5 groups. […] 0.2 ml of the intravenous blood samples were collected through the rat's retrobulbar venous plexus before the administration and 5 min, 15 min, 0.5 h, 1.0 h, 2.0 h, 4.0 h, 8.0 h, 12 h and 24 h after the administration, and separated to give plasmas.
The concentration of the drug in plasma was determined with the liquid chromatography-tandem mass spectrometry method to give a drug concentration-time curve.
T1/2: elimination half-life; Cmax: maximum drug concentration in plasma; AUC0-t: area under drug concentration-time curve.

[3] = Solubility test under different pH buffering solutions; format: physicochemical; conditions: for Solubility: 24 h; for solubilities compared with the compound of formula (I) of Example 1: solvent pH values 1.0, 4.5 and 6.8, conclusion in words
Procedure: The solubilities of the crystal forms of the mesylate salt of the compound of formula (I) may be measured according to the following method: • Each substance is weighed in an appropriate amount and placed in a brown flask. Different solvents are added. The mixtures are ultrasonically treated for 20 seconds. After the mixtures are uniformly dispersed, the mixtures are shaked at 25° C., 200 rpm for 24 h, then removed, and separated by centrifugation at 12000 rpm for 10 mins. The supernatants are removed by suction and diluted to a certain fold with the corresponding solvent. Then, the concentrations of the resulting solutions are determined by HPLC and their pH values are measured.
The compound of formula (I) of Example 1, Form I of the mesylate salt of the compound of formula (I), and Form II of the mesylate salt of the compound of formula (I) were investigated for the solubilities under different pH buffering solutions.
Test method: Each substance was weighed in an appropriate amount and placed in a brown flask. Different solvents were added. The mixtures were ultrasonically treated for 20 seconds. After the mixtures were uniformly dispersed, the mixtures were shaked at 25° C., 200 rpm for 24 h, then removed, and separated by centrifugation at 12000 rpm for 10 mins. The supernatants were removed by suction and diluted to a certain folds with the corresponding solvent. Then, the concentrations of the resulting solutions were determined by HPLC and their pH values were measured.

[4] = Acetate buffering solution at pH = 4.5, 25° C.
[5] = Phosphate buffering solution at pH = 6.8, 25° C.
[6] = intragastric, dosage 10 mg/kg, plasma

Structure (SMILES): C=CC(=O)Nc1cc(Nc2nccc(-c3cn(C)c4ccccc34)n2)c(OC(C)C)nc1N(C)CCN(C)C [Comparative Example 1, reference compound]
bioavailability ([1]; both sexes, Sprague-Dawley, rat, plasma, po, 6 mg/kg, intragastric 6 mg/kg vs intravenous 3.0 mg/kg): 8.9%
half-life ([2]; both sexes, Sprague-Dawley, rat, iv, 3 mg/kg, dosage 3.0 mg/kg, elimination half-life): 2.72 h
AUC(0-t) ([2]; both sexes, Sprague-Dawley, rat, iv, 3 mg/kg, dosage 3.0 mg/kg, read-out: AUC0-t): 438 ng·h/mL
Cmax ([2]; both sexes, Sprague-Dawley, rat, iv, 3 mg/kg, dosage 3.0 mg/kg, read-out: Cmax): 328 ng/mL

Structure (SMILES): C=CC(=O)Nc1cc(Nc2ncc(Cl)c(-c3cn(C)c4ccccc34)n2)c(OC(C)C)nc1N(C)CCN(C)C [Comparative Example 2, reference compound]
bioavailability ([1]; both sexes, Sprague-Dawley, rat, plasma, po, 10 mg/kg, intragastric 10 mg/kg vs intravenous 4.0 mg/kg): 8.5%
half-life ([2]; both sexes, Sprague-Dawley, rat, iv, 4 mg/kg, dosage 4.0 mg/kg, elimination half-life): 1.71 h
AUC(0-t) ([2]; both sexes, Sprague-Dawley, rat, iv, 4 mg/kg, dosage 4.0 mg/kg, read-out: AUC0-t): 811 ng·h/mL
Cmax ([2]; both sexes, Sprague-Dawley, rat, iv, 4 mg/kg, dosage 4.0 mg/kg, read-out: Cmax): 630 ng/mL

Second part, the compound after the results:

Solubility ([3]; 0.1N HCl, 25° C.): >30 mg/mL
Solubility [3, 4]: 0.62 mg/mL (≈ 1090 µM)
Solubility [3, 5]: 0.0003 mg/mL (≈ 0.528 µM)
Structure (SMILES): C=CC(=O)Nc1cc(Nc2nccc(-c3cn(C)c4ccccc34)n2)c(OCC(F)(F)F)nc1N(C)CCN(C)C [Example 1, N-{2-{[2-(dimethylamino)ethyl](methyl)amino}-6-(2,2,2-trifluoroethoxy)-5-{[4-(1-methyl-1H-indol-3-yl)pyrimidin-2-yl]amino}pyridin-3-yl}acrylamide]

Solubility ([3]; 0.1N HCl, 25° C.): >100 mg/mL
Solubility [3, 4]: 29.05 mg/mL
Solubility [3, 5]: 0.02 mg/mL
solubilities compared with the compound of formula (I) of Example 1 [3]: remarkably better
half-life ([1]; both sexes, Sprague-Dawley, rat, plasma, po, 10 mg/kg, intragastric, dosage 10 mg/kg, elimination half-life): 7.98 h
AUC(0-t) ([1]; both sexes, Sprague-Dawley, rat, plasma, po, 10 mg/kg, intragastric, dosage 10 mg/kg, plasma, read-out: AUC0-t): 613 ng·h/mL
Cmax ([1]; both sexes, Sprague-Dawley, rat, plasma, po, 10 mg/kg, intragastric, dosage 10 mg/kg, plasma, read-out: Cmax): 45.3 ng/mL
F (absolute bioavailability) [1]: 49.8%
half-life ([2]; both sexes, Sprague-Dawley, rat, iv, 2.5 mg/kg, dosage 2.5 mg/kg, elimination half-life): 4.73 h
AUC(0-t) ([2]; both sexes, Sprague-Dawley, rat, iv, 2.5 mg/kg, dosage 2.5 mg/kg, read-out: AUC0-t): 308 ng·h/mL
Cmax ([2]; both sexes, Sprague-Dawley, rat, iv, 2.5 mg/kg, dosage 2.5 mg/kg, read-out: Cmax): 105 ng/mL
Structure (SMILES): C=CC(=O)Nc1cc(Nc2nccc(-c3cn(C)c4ccccc34)n2)c(OCC(F)(F)F)nc1N(C)CCN(C)C [Form I, Form I of the Mesylate Salt of N-{2-{[2-(dimethylamino)ethyl](methyl)amino}-6-(2,2,2-trifluoroethoxy)-5-{[4-(1-methyl-1H-indol-3-yl)pyrimidin-2-yl]amino}pyridin-3-yl}acrylamide]

Solubility ([3]; 0.1N HCl, 25° C.): >100 mg/mL
Solubility [3, 4]: 61.14 mg/mL
Solubility [3, 5]: 0.02 mg/mL
solubilities compared with the compound of formula (I) of Example 1 [3]: remarkably better
F (absolute bioavailability) [1]: 39.1%
AUC(0-t) [1, 6]: 566.3 ng·h/mL
Cmax [1, 6]: 36.7 ng/mL
T1/2 ([2]; dosage 2.5 mg/kg, elimination half-life): 4.83 h
AUC(0-t) ([2]; dosage 2.5 mg/kg): 362.0 ng·h/mL
Cmax ([2]; dosage 2.5 mg/kg): 125.4 ng/mL
Structure (SMILES): C=CC(=O)Nc1cc(Nc2nccc(-c3cn(C)c4ccccc34)n2)c(OCC(F)(F)F)nc1N(C)CCN(C)C [Form II, Form II of the Mesylate Salt of N-{2-{[2-(dimethylamino)ethyl](methyl)amino}-6-(2,2,2-trifluoroethoxy)-5-{[4-(1-methyl-1H-indol-3-yl)pyrimidin-2-yl]amino}pyridin-3-yl}acrylamide]
